Laboratory results reported in US20060276436A1, “Farnesyl dibenzodiazepinone formulation” (Ecopia BioSciences, Inc., priority 2005, published 2006).
“And” between values parts separate entries of the source, which are not always exact repeats. Equal values may be shown once. Read-outs that look alike come from different tables or passages of the source.

Key:
[1] = Population pharmacokinetic analysis (NONMEM), mouse; assay type: in vivo; details: 30 mg/kg; for half-life: CD1, mouse, plasma, iv; for clearance / Vd: CD1, plasma, Mouse (IV); for Vd: read-out: Vss
From the text: (§1) Plasma concentrations of Compound 1 were obtained from mice, rats, and monkeys following intravenous injection or continuous infusion. Compound 1 pharmacokinetic parameters in mice, rats, and monkeys were estimated using population pharmacokinetic analysis, a function of the software program NONMEM™ (version 5). Typical population pharmacokinetic parameters for Compound 1 in humans were extrapolated from allometric equations that were derived from pharmacokinetic parameters estimated in the three animal species. […] A two-compartment model with a first-order elimination from the central compartment adequately described Compound 1 plasma concentration-time profiles following intravenous bolus injection (30 mg/kg) in mice and rats, 7-day continuous infusion in rats (50 to 170 mg/kg/day), and 14-day continuous infusion in monkeys (5 to 30 mg/kg/day).

[2] = Pharmacokinetics of Formulation D11 given CIV for 14 days in rats; assay type: in vivo; details: both sexes, Sprague-Dawley, rat, plasma; for concentration at 2 h: read-out: mean plasma concentration 2 hours after the end of infusion; for Vd / AUC / clearance: iv, 14-day CIV
Description: Sprague-Dawley rats received an intravenous continuous infusion over 14 days of Compound 1 at 25 mg/kg/day, 50 mg/kg/day, or 75 mg/kg/day at a rate of 2 mL/kg/h for 14 consecutive days (Formulation D11). Blood was collected from the jugular vein in tubes containing K2 EDTA from 3 rats/sex/group at the following time points: 2, 6, and 12 hours after the start of dosing on Day 1, on Day 2 at 6 hours (approximately 30 hours after the start of dosing), on Days 6 and 10 at 6 hours, and on Day 15, 1 hour prior the end of dosing, and then at 5 min, 15 min, 30 min, 1 h, and 2 h after the end of dosing.

[3] = Population pharmacokinetic analysis (NONMEM), rat; assay type: in vivo; details: plasma, Rat (IV + CIV); for Vd: read-out: Vss; for half-life: rat, iv
From the text: as §1

[4] = test system: human prostate tumor (PC3) xenografts; test: Human PC3 prostate cancer mice model; assay type: in vivo, HRLN male nude mice; details: Intravenous treatment, 100 mg/kg 5/2/5/2/5
Description: The anticancer activity of Compound 1 was tested in a human PC3 prostate model in mice, using formulation D11; at 6, 9 and 10 mg/mL concentrations (see Table 7). HRLN male nude mice (8 weeks of age) were implanted with 1 mm^3 PC3 tumor fragments subcutaneously (sc) in the right flank. Animals were randomized (ten per group) when tumors reach an average size of 80-120 mg and treatment began according to the table below.
Tumor measurements were taken twice weekly using callipers and were converted to tumor mass (in milligrams) using the formula: with^2 (mm)×length (mm)×0.52. Body weights were also recorded twice weekly. Statistical analysis was done using the unpaired two-tailed Student's t test.

[5] = In vivo toxicity of Compound 1 in monkeys
[6] = Pharmacokinetic study using Formulation D11 (IV, IP, SC) and Formulation C (PO); assay type: in vivo, Crl: CD1 mice
Description: Formulation D11, at a final concentration of 6 mg/ml of Compound 1 was used for IV, IP and SC bolus administration. […] Prior to dosing, animals (female Crl: CD1 mice; 6 weeks of age, 22-24 g) were weighed, randomly selected and assigned to the different treatment groups. Compound 1 was administered by the intravenous (IV), subcutaneous (SC), intraperitoneal (IP), or oral (PO) route to the assigned animals. The dosing volume of Compound 1 was 5 mL per kg body weight. Animals were anesthetized prior to bleeding with 5% isoflurane. Blood was collected into microtainer tubes containing the anticoagulant K2EDTA by cardiac puncture from each of 4 animals per bleeding timepoint (2 min, 5 min, 15 min, 30 min, 1 h, 2 h, 4 h and 8 h). Following collection, the samples were centrifuged and the plasma obtained from each sample was recovered and stored frozen (at approximately −80° C.) pending analysis. […] Samples were analysed by LC/MS/MS. Standard curve ranged from 25 to 2000 ng/mL with limit of quantitation (LOQ)≦25 ng/mL and limit of detection (LOD) of 10 ng/mL.
Plasma values of Compound 1 falling below the limit of quantitation (LOQ) were set to zero. Mean concentration values and standard deviation (SD) were calculated at each timepoints of the pharmacokinetic study (n=4 animals/timepoint). The following pharmacokinetic parameters were calculated: area under the plasma concentration versus time curve from time zero to the last measurable concentration time point (AUC0-t), area under the plasma concentration versus time curve extrapolated to infinity (AUCinf), maximum observed plasma concentration (Cmax), time of maximum plasma concentration (tmax), apparent first-order terminal elimination rate constant (kel), apparent first-order terminal elimination half-life will be calculated as 0.693/kel (t1/2). The systemic clearance (CL) of Compound 1 after intravenous administration was calculated using Dose/AUCinf. Pharmacokinetic parameters were calculated using Kinetica™ 4.1.1 (Innaphase Corporation, Philadelphia, Pa.).

[7] = test system: human breast tumor (MDA-MB-231) xenografts; test: Human MDA-MB-231 breast cancer mice model; assay type: in vivo, HRLN female nude mice; details: Intravenous treatment, 100 mg/kg 5/2/5/2/5
Description: The antitumor activity of Compound 1 was further tested in a human MD-MB-231 breast cancer model in mice, using formulation D11 at 6 and 10 mg/mL concentrations (see Table 8). HRLN female nude mice (8 weeks of age) were treated with 5×10^6 MDA-MB-231 tumor cells (sc) in the right flank. Animals were randomized (ten per group) when tumors reach an average size of 80-120 mg and treatment began according to the table below.
Tumor measurements were taken twice weekly using calipers and were converted to tumor mass (in milligrams) using the formula: with^2 (mm)×length (mm)×0.52. Body weights were also recorded twice weekly. Statistical analysis was done using the unpaired two-tailed Student's t test.

[8] = population PK, read-out: t1/2, α (converted)
[9] = population PK, read-out: t1/2, β (converted)

Structure (SMILES): CC(C)=CCC/C(C)=C/CC/C(C)=C/CN1C(=O)c2cccc(O)c2Nc2c(O)cc(O)cc21 [Compound 1, 10-farnesyl-4,6,8-trihydroxy-dibenzodiazepin-11-one]
- half-life [1, 8]: 0.078 h
- half-life [1, 9]: 2.49 h
- clearance ([1]; WT 0.022 Kg): 0.533 mL/min
- Vd ([1]; WT 0.022 Kg): 0.009 L
- clearance ([1]; population PK): 1.49 L/h/kg
- Vd ([1]; population PK): 0.401 L/kg
- concentration at 2 h ([2]; intravenous, 25 mg/kg/day): 0.028 µg/mL
- concentration at 2 h ([2]; intravenous, 50 mg/kg/day): 0.053 µg/mL
- concentration at 2 h ([2]; intravenous, 75 mg/kg/day): 0.075 µg/mL
- concentration at 10 day ([2]; intravenous, CIV, 50 mg/kg/day): 1750 ng/mL and ~3.8 µM
- Vd ([2]; 25 mg/kg/day, 25 mg/kg/day, read-out: Vss): 15.8 L/kg
- Vd ([2]; 25 mg/kg/day, 25 mg/kg/day, read-out: Vz): 6.8 L/kg
- Vd ([2]; 50 mg/kg/day, 50 mg/kg/day, read-out: Vss): 38.8 L/kg
- Vd ([2]; 50 mg/kg/day, 50 mg/kg/day, read-out: Vz): 3.1 L/kg
- Vd ([2]; 75 mg/kg/day, 75 mg/kg/day, read-out: Vss): 15.4 L/kg
- Vd ([2]; 75 mg/kg/day, 75 mg/kg/day, read-out: Vz): 3.1 L/kg
- AUC ([2]; 25 mg/kg/day): 116 µg·h/mL
- clearance ([2]; 25 mg/kg/day): 3 L/h/kg
- AUC ([2]; 50 mg/kg/day): 396 µg·h/mL
- clearance ([2]; 50 mg/kg/day): 1.8 L/h/kg
- AUC ([2]; 75 mg/kg/day): 597 µg·h/mL
- clearance ([2]; 75 mg/kg/day): 1.8 L/h/kg
- clearance ([3]; WT 0.225 Kg): 4.08 mL/min
- Vd ([3]; WT 0.225 Kg): 0.081 L
- clearance ([3]; population PK): 1.09 L/h/kg
- Vd ([3]; population PK): 0.362 L/kg
- half-life [3, 8]: 0.075 h
- half-life [3, 9]: 2.5 h
- antitumor activity (in words) [4]: did not result in activity
- acute toxicity, tolerability ([5]; 24-hour CIV, doses of 35 mg/kg and 70 mg/kg, infusion rate 2 mL/kg/hour): well tolerated
- MTD ([5]; monkey, in vivo, single bolus intravenous administration): ~35 mg/kg
- tissue distribution (in words) ([6]; IV and IP dosing 30 mg/kg, 30 min): well distributed
- tissue levels (in words) ([6]; SC dosing 30 mg/kg, 30 min, versus IP): significantly lower
- time plasma concentration maintained at therapeutically relevant levels ([6]; intraperitoneal and subcutaneous administrations, 30 mg/kg, Formulation D11): over 8 hours
- antitumor activity (in words) [7]: did not result in activity
